Tested on: Peripheral Blood Mononuclear Cells
Test: PepChip kinome array: in vitro phosphorylation of peptide array by lysates of LPS-stimulated PBMCs
Assay type: cell-based, human
Conditions: PBMC lysate, 1.0 μM CNI-1493, 100 ng/ml LPS
Procedure: Peripheral Blood Mononuclear Cells (PBMCs) were isolated from peripheral blood from healthy volunteers using standard density-gradient centrifugation over Ficoll-Paque Plus (Amersham Pharmacia Biotech AB, Uppsala, Sweden) after washing in resuspension in IMDM supplemented with 10% FBS, penicillin, streptomycin and amphotericin (hereafter referred to as complete IMDM).
For kinome array samples, 10^7 PBMCs were suspended in 5 ml media (IMDM supplemented with 1.0% human serum). LPS stimulation consisted of a […] (37° C., 5% CO2) with 100 ng/ml LPS (E. coli, serotype 0111:B4). CNI treated PBMCs were maintained in media dosed with 1.0 μM CNI-1493 (Cytokine PharmaSciences, Inc.) 1 hour before and during incubation for LPS stimulation. Stimulations were terminated by an ice-cold PBS wash. PBMCs were lysed in 200 μl cell lysis buffer (20 mM Tris-HCl (pH 7.5), 150 mM NaCl, 1 mM Na2EDTA, 1 mM EGTA, 1% Triton, 2.5 mM sodium pyrophosphate, 1 mM MgCl2, 1 mM beta-glycerophosphate, 1 mM Na3VO4, 1 mM NaF, 1 μg/ml leupeptin, 1 μg/ml aprotinin, 1 mM PMSF) and the volume of the cell lysate were equalised with dH2O. The cell lysates were subsequently cleared on a 0.22 μm filter. PepChip incubation mix was produced by adding 10 μl of filter-cleared activation mix (50% glycerol, 50 μM ATP, 0.05% v/v Brij-35, 0.25 mg/ml BSA, ^33P-γ-ATP (1000 kBq)). Next, the PepChip mix is added onto the chip and the chip is kept at 37° C. in a humidified stove for 90 minutes. Subsequently, the PepChip was washed once with TBST, twice in 2M NaCl and twice in demineralised H2O and air-dry the PepChip slips. The experiments were performed three times in duplicate. The average inter-experimental variance in relative values was less than 5% for all spots.
The chips were exposed to a phosphoimager plate for 72 hours and the spots were analysed on AIDA analysing software. For graphical visualisation of the spots in FIG. 2 the data of four arrays was averaged to eliminate false positives.

LPS + CNI: peptide phosphorylation, Kinase PKA, Substrate P450 (Control 2412, LPS 19980): 265
SMILES: C/C(=N\NC(=N)N)c1cc(NC(=O)CCCCCCCCC(=O)Nc2cc(/C(C)=N/NC(=N)N)cc(/C(C)=N/NC(=N)N)c2)cc(/C(C)=N/NC(=N)N)c1 [Semapimod]
LPS + CNI: peptide phosphorylation, Kinase p34cdc2, Substrate Vimentin (Control 192, LPS 214): 300
LPS + CNI: peptide phosphorylation, Kinase CKII, Substrate Lamin B R (Control 214, LPS 1736): 250
LPS + CNI: peptide phosphorylation, Kinase p34cdc2, Substrate c-Src (Control 230, LPS 248): 270
LPS + CNI: peptide phosphorylation, Kinase CKII, Substrate TOPII (Control 231, LPS 900): 900
LPS + CNI: peptide phosphorylation, Kinase CKII, Substrate Lamin D (Control 242, LPS 822): 320
LPS + CNI: peptide phosphorylation, Kinase Auto, Substrate PKG (Control 246, LPS 8100): 320
LPS + CNI: peptide phosphorylation, Kinase GRK, Substrate Tau (Control 248, LPS 230): 250
LPS + CNI: peptide phosphorylation, Kinase JAK, Substrate STAT1a/b (Control 248, LPS 7704): 231
LPS + CNI: peptide phosphorylation, Kinase Cdc2, Substrate CKII (Control 268, LPS 1728): 265
LPS + CNI: peptide phosphorylation, Kinase CytoK Rec, Substrate FPS (Control 270, LPS 5512): 265
LPS + CNI: peptide phosphorylation, Kinase CK II?, Substrate TOPII (Control 274, LPS 280): 300
LPS + CNI: peptide phosphorylation, Kinase PKA, Substrate MBP (Control 280, LPS 1250): 265
LPS + CNI: peptide phosphorylation, Kinase Scr-family?, Substrate PTP-2C (Control 287, LPS 5960): 250
LPS + CNI: peptide phosphorylation, Kinase PKA, Substrate HSP27 (Control 288, LPS 1072): 298
LPS + CNI: peptide phosphorylation, Kinase PKC, Substrate HSP27 (Control 291, LPS 280): 300
LPS + CNI: peptide phosphorylation, Kinase PKA, Substrate v-Rel (Control 291, LPS 2574): 291
LPS + CNI: peptide phosphorylation, Kinase GSK3, Substrate GS (Control 312, LPS 320): 250
LPS + CNI: peptide phosphorylation, Kinase p34cdc2, Substrate CKII (Control 320, LPS 560): 291
LPS + CNI: peptide phosphorylation, Kinase PKA, Substrate Tau (Control 340, LPS 340): 250
LPS + CNI: peptide phosphorylation, Kinase PKA, Substrate c-Rel (Control 421, LPS 250): 261
LPS + CNI: peptide phosphorylation, Kinase p34cdc2, Substrate AP-1 (Control 460, LPS 548): 274
LPS + CNI: peptide phosphorylation, Kinase PKA, Substrate MBP (Control 536, LPS 822): 248
LPS + CNI: peptide phosphorylation, Kinase CaM-II, Substrate MBP (Control 600, LPS 265): 680
LPS + CNI: peptide phosphorylation, Kinase PKA, Substrate GS (Control 795, LPS 7980): 340
LPS + CNI: peptide phosphorylation, Kinase PKA/Ca2+, Substrate Trp-5-MO (Control 1164, LPS 23925): 1305
LPS + CNI: peptide phosphorylation, Kinase PKA, Substrate GS (Control 1440, LPS 1020): 3450
LPS + CNI: peptide phosphorylation, Kinase PKC, Substrate Lamin B1 (Control 2016, LPS 268): 1072
LPS + CNI: peptide phosphorylation, Kinase PKC, Substrate MBP (Control 2376, LPS 198): 319
LPS + CNI: peptide phosphorylation, Kinase PKC, Substrate ACC-a (Control 2750, LPS 10692): 861
LPS + CNI: peptide phosphorylation, Kinase CKII, Substrate TOPII (Control 3836, LPS 320): 291
LPS + CNI: peptide phosphorylation, Kinase Src, Substrate Annexin2 (Control 4438, LPS 8745): 287
LPS + CNI: peptide phosphorylation, Kinase PKC, Substrate EIF4E (Control 4494, LPS 41272): 6699
LPS + CNI: peptide phosphorylation, Kinase and Substrate not given (Control 4960, LPS 530): 254
LPS + CNI: peptide phosphorylation, Kinase CKI, Substrate GS (Control 5616, LPS 13386): 300
LPS + CNI: peptide phosphorylation, Kinase CaM-II, Substrate Vimentin (Control 6930, LPS 4147): 248
LPS + CNI: peptide phosphorylation, Kinase Lck/Fyn, Substrate MHC-I (Control 7040, LPS 1370): 230
